Data as given in PMC11318101, “Fragment-Based Screen of SARS-CoV-2 Papain-like Protease (PL^pro)” (ACS Medicinal Chemistry Letters, 2024).

What follows are compounds tested against SARS-CoV-2 PLPro (full-length, intact C111) (Severe acute respiratory syndrome coronavirus 2, UniProt P0DTD1, C1833S).
Format: biochemical

Row | Structure (SMILES) | inhibition at 1 mM
1 | Cc1cc(Nc2ccccc2C)n2ncnc2n1 [Fragment 9] | 5%
2 | Cn1ncc2c(Nc3ccccc3Cl)ncnc21 [Fragment 7] | 30%
3 | CC(C)c1cc(O)n2ncc(-c3ccccc3)c2n1 [Fragment 8] | 62%
4 | Cc1ccc(Nc2cc(C)nc3nncn23)c(C)c1 [Fragment 11] | 2%
